Experimental data taken from ChEMBL document CHEMBL1125617, “N6-substituted adenosine receptor agonists: potential antihypertensive agents” (J Med Chem, 1991).
pKi: −log10 of the molar value.

Key:
[1] = target: Adenosine receptors; A1 & A2 (Rattus norvegicus) (UniProt P29276+P25099+P30543); assay: Ratio of Ki values of A1 adenosine and A2 adenosine receptor; assay type: protein assay
Adenosine receptor A1 = target: T1, Adenosine receptor A1 (Rattus norvegicus, UniProt P25099); assay: Binding affinity towards adenosine A1 receptor
T1 sequence (P25099 whole entry): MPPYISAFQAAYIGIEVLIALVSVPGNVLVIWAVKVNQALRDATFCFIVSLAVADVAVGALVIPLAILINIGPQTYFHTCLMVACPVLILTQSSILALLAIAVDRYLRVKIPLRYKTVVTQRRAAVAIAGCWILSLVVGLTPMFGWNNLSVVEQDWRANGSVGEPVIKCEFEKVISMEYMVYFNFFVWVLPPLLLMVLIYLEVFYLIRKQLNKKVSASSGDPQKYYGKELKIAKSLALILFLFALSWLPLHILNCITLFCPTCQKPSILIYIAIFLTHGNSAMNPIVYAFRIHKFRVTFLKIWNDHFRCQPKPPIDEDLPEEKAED

Adenosine A2 receptor = Adenosine A2 receptor (Rattus norvegicus, UniProt P29276+P30543); assay: Binding affinity towards adenosine A2 receptor; assay type: protein assay
Rattus norvegicus [2] = assay: Antihypertensive activity measured as change in blood pressure for a 10-h after 10 mg/kg oral dose in rat; assay type: functional
Rattus norvegicus [3] = assay: Antihypertensive activity measured as change in heart rate was measured for a 10-h after 10 mg/kg oral dose; assay type: functional

Compound | Ratio [1] | pKi (Adenosine receptor A1) | Ki (Adenosine A2 receptor) [nM] | Change (Rattus norvegicus [2]) [%] | Change (Rattus norvegicus [3]) [%] | Change (Rattus norvegicus [2]; 10 mg/kg) [%] | Change (Rattus norvegicus [3]; 10 mg/kg) [%]
CCOc1ccc2c(c1)CCC2Nc1ncnc2c1ncn2[C@@H]1O[C@H](CO)[C@@H](O)[C@H]1O (stereo not given in full) | 224 | 7.48 | 7487 | -33 | -34 |  | 
COc1cc2c(c(OC)c1OC)C(Nc1ncnc3c1ncn3[C@@H]1O[C@H](CO)[C@@H](O)[C@H]1O)CC2 (stereo not given in full) | 32.6 | 5.82 | 49710 | <10 | <10 |  | 
CC(C)COc1ccc2c(c1)CCC2Nc1ncnc2c1ncn2[C@@H]1O[C@H](CO)[C@@H](O)[C@H]1O (stereo not given in full) | 323 | 7.55 | 9038 | -39 | -21 |  | 
CCCCCOc1ccc2c(c1)CCC2Nc1ncnc2c1ncn2[C@@H]1O[C@H](CO)[C@@H](O)[C@H]1O (stereo not given in full) | 120 | 6.98 | 12480 | -47 | -20 |  | 
CCCCOc1ccc2c(c1)CCC2Nc1ncnc2c1ncn2[C@@H]1O[C@H](CO)[C@@H](O)[C@H]1O (single isomer, unassigned; isomer A) [listing 1 of 2 here] |  | 7.36 | 103200 |  |  | <10 | 15
OC[C@H]1O[C@@H](n2cnc3c(N[C@H]4CCCc5ccccc54)ncnc32)[C@H](O)[C@@H]1O | 13.3 | 6.52 | 3989 | -28 | <10 |  | 
OC[C@H]1O[C@@H](n2cnc3c(NCC4CCc5ccccc54)ncnc32)[C@H](O)[C@@H]1O (stereo not given in full) | 12.9 | 8.28 | 66.7 | -40 | -15 |  | 
COc1ccc2c(c1)CCC2Nc1ncnc2c1ncn2[C@@H]1O[C@H](CO)[C@@H](O)[C@H]1O (stereo in doubt; 4) [listing 1 of 2 here] |  | 7.23 | 4350 |  |  | -40 | -33
OC[C@H]1O[C@@H](n2cnc3c(NCC4CCCc5ccccc54)ncnc32)[C@H](O)[C@@H]1O (stereo not given in full) | 5.2 | 7.76 | 91.7 | <10 | 21 |  | 
OC[C@H]1O[C@@H](n2cnc3c(NCC4CCCCc5ccccc54)ncnc32)[C@H](O)[C@@H]1O (stereo not given in full) | 7.3 | 6.93 | 857 | <10 | <10 |  | 
COc1ccc2c(c1)C(Nc1ncnc3c1ncn3[C@@H]1O[C@H](CO)[C@@H](O)[C@H]1O)CCC2 (stereo in doubt; 31) [listing 1 of 2 here] | 27 |  |  |  |  |  | 
CCCCOc1ccc2c(c1)CCC2Nc1ncnc2c1ncn2[C@@H]1O[C@H](CO)[C@@H](O)[C@H]1O (single isomer, unassigned; isomer B) [listing 1 of 2 here] | 81.7 |  |  |  |  |  | 
COc1cccc2c1CCCC2Nc1ncnc2c1ncn2[C@@H]1O[C@H](CO)[C@@H](O)[C@H]1O (stereo not given in full) | 9.2 | 7.63 | 218 | -52 | -31 |  | 
OC[C@H]1OC(n2cnc3c(NCC4(O)CCCc5ccccc54)ncnc32)[C@H](O)[C@@H]1O (stereo not given in full) | 31.4 | 7.21 | 1922 | <10 | <10 |  | 
COc1ccc2c(c1)CCC2Nc1ncnc2c1ncn2[C@@H]1O[C@H](CO)[C@@H](O)[C@H]1O (single isomer, unassigned; isomer b) [listing 1 of 2 here] |  | 7.38 | 1450 |  |  | -25 | -11
COc1ccc2c(c1)CCC2Nc1ncnc2c1ncn2[C@@H]1O[C@H](CO)[C@@H](O)[C@H]1O (single isomer, unassigned; isomer b) [listing 2 of 2 here] | 34.8 |  |  |  |  |  | 

Compound | Ratio [1] | pKi (Adenosine receptor A1) | Ki (Adenosine A2 receptor) [nM] | Change (Rattus norvegicus [2]) [%] | Change (Rattus norvegicus [3]) [%] | Change (Rattus norvegicus [2]; 10 mg/kg) [%] | Change (Rattus norvegicus [3]; 10 mg/kg) [%]
O=[N+]([O-])c1ccc2c(c1)CCC2Nc1ncnc2c1ncn2[C@@H]1O[C@H](CO)[C@@H](O)[C@H]1O (stereo not given in full) | 87.6 | 7.39 | 3548 | -14 | <10 |  | 
COc1ccc2c(c1)CCC2Nc1ncnc2c1ncn2[C@@H]1O[C@H](CO)[C@@H](O)[C@H]1O (stereo in doubt; 4) [listing 2 of 2 here] | 73 |  |  |  |  |  | 
CCCCOc1ccc2c(c1)CCC2Nc1ncnc2c1ncn2[C@@H]1O[C@H](CO)[C@@H](O)[C@H]1O (single isomer, unassigned; isomer B) [listing 2 of 2 here] |  | 7.32 | 3946 |  |  | -31 | -13
OC[C@H]1O[C@@H](n2cnc3c(NCC4(O)CCCCc5ccccc54)ncnc32)[C@H](O)[C@@H]1O (stereo not given in full) | 9.8 | 6.56 | 2705 | -14 | <10 |  | 
OC[C@H]1O[C@@H](n2cnc3c(N[C@H]4CCc5ccccc54)ncnc32)[C@H](O)[C@@H]1O | 74 | 6.51 | 23000 | <10 | <10 |  | 
OC[C@H]1O[C@@H](n2cnc3c(NC4CCCCc5ccccc54)ncnc32)[C@H](O)[C@@H]1O (stereo not given in full) | 4.27 | 7.75 | 76.9 | -42 | 28 |  | 
COc1ccc2c(c1)C(Nc1ncnc3c1ncn3[C@@H]1O[C@H](CO)[C@@H](O)[C@H]1O)CCC2 (single isomer, unassigned; isomer A) [listing 1 of 2 here] |  | 5.59 | 34060 |  |  | <10 | <10
CCCCOc1ccc2c(c1)CCC2Nc1ncnc2c1ncn2[C@@H]1O[C@H](CO)[C@@H](O)[C@H]1O (single isomer, unassigned; isomer A) [listing 2 of 2 here] | 2370 |  |  |  |  |  | 
COc1ccc2c(c1)C(Nc1ncnc3c1ncn3[C@@H]1O[C@H](CO)[C@@H](O)[C@H]1O)CCC2 (single isomer, unassigned; isomer B) [listing 1 of 2 here] |  | 7.92 | 274 |  |  | -44 | 37
COc1ccc2c(c1)CCC2Nc1ncnc2c1ncn2[C@@H]1O[C@H](CO)[C@@H](O)[C@H]1O (single isomer, unassigned; isomer A) [listing 1 of 2 here] | 120 |  |  |  |  |  | 
COc1ccc2c(c1)C(Nc1ncnc3c1ncn3[C@@H]1O[C@H](CO)[C@@H](O)[C@H]1O)CCC2 (single isomer, unassigned; isomer A) [listing 2 of 2 here] | 13.2 |  |  |  |  |  | 
COc1ccc2c(c1)CCC2Nc1ncnc2c1ncn2[C@@H]1O[C@H](CO)[C@@H](O)[C@H]1O (single isomer, unassigned; isomer A) [listing 2 of 2 here] |  | 6.63 | 28260 |  |  | <10 | <10
CCCCOc1ccc2c(c1)CCC2Nc1ncnc2c1ncn2[C@@H]1O[C@H](CO)[C@@H](O)[C@H]1O (stereo in doubt; 15) [listing 1 of 2 here] |  | 7.33 | 5922 |  |  | -46 | -28
COc1ccc2c(c1)C(Nc1ncnc3c1ncn3[C@@H]1O[C@H](CO)[C@@H](O)[C@H]1O)CCC2 (single isomer, unassigned; isomer B) [listing 2 of 2 here] | 22.7 |  |  |  |  |  | 
COc1ccc2c(c1)C(Nc1ncnc3c1ncn3[C@@H]1O[C@H](CO)[C@@H](O)[C@H]1O)CCC2 (stereo in doubt; 31) [listing 2 of 2 here] |  | 7.64 | 619 |  |  | -56 | -40
CCCCOc1ccc2c(c1)CCC2Nc1ncnc2c1ncn2[C@@H]1O[C@H](CO)[C@@H](O)[C@H]1O (stereo in doubt; 15) [listing 2 of 2 here] | 126 |  |  |  |  |  | 
